Assay: xn = mol fraction of the nth substance listed

CC(=O)[O-].CCCC[n+]1ccn(C)c1 + NCCCNCCCN + O
viscosity [mPa·s], 101 kPa
Settings | 298.15 K | 303.15 K | 308.15 K | 313.15 K | 318.15 K | 323.15 K | 328.15 K | 333.15 K
x1 = 0.03479, x2 = 0 | 2.23 | 2.18 | 2.16 | 2.13 | 1.74 | 1.58 | 1.51 | 1.24
x1 = 0.03897, x2 = 0 | 2.35 | 2.29 | 2.25 | 2.22 | 2.11 | 2.07 | 1.91 | 1.86
x1 = 0.04311, x2 = 0 | 2.66 | 2.63 | 2.56 | 2.49 | 2.29 | 2.26 | 2.02 | 1.97

C=C[n+]1ccn(CCCC)c1.N[C@@H](Cc1c[nH]cn1)C(=O)[O-] + O
101.3 kPa
Settings | electrical conductivity [S/m] | viscosity [mPa·s]
303.15 K, x1 = 0.3 | 3.56 | 8.1
303.15 K, x1 = 0.9 | 0.59 | 1179
323.15 K, x1 = 1 | 0.21 | 1418
333.15 K, x1 = 0.3 | – | 4.19
343.15 K, x1 = 0.7 | – | 29.04
353.15 K, x1 = 0.5 | – | 12.68

CCCC[n+]1ccn(C)c1.F[B-](F)(F)F + CN(C)C=O
Settings | viscosity [mPa·s]
293.15 K, 101 kPa, x1 = 0.08 | 3.1
298.15 K, 101 kPa, x1 = 0.74 | 42.5
298.15 K, 101 kPa, x1 = 0.83 | 62.4
298.15 K, 101 kPa, x1 = 0.94 | 88
298.15 K, 101.33 kPa, x2 = 0.1024 | 78
303.15 K, 100 kPa, x1 = 0.1008 | 1.497
303.15 K, 101 kPa, x1 = 0.94 | 74
308.15 K, 101 kPa, x1 = 0.43 | 5.71
313.15 K, 100 kPa, x1 = 0.8015 | 25.47
313.15 K, 100 kPa, x1 = 1 | 53.84
313.15 K, 101 kPa, x1 = 0.16 | 2.45
313.15 K, 101 kPa, x1 = 0.74 | 18.5
318.15 K, 101 kPa, x1 = 0.08 | 1.42
318.15 K, 101 kPa, x1 = 0.55 | 1.67
318.15 K, 101 kPa, x1 = 0.74 | 12
323.15 K, 100 kPa, x1 = 0.3022 | 2.993
323.15 K, 100 kPa, x1 = 0.7019 | 14.07
323.15 K, 101 kPa, x1 = 0.08 | 1.19
323.15 K, 101 kPa, x1 = 0.74 | 6.8
323.15 K, 101 kPa, x1 = 0.94 | 26.6
333.15 K, 100 kPa, x1 = 0.7019 | 10.75

CCC[N+]1(C)CCCC1.O=S(=O)([N-]S(=O)(=O)C(F)(F)F)C(F)(F)F + O=C1CCCO1
101 kPa, frequency 0.0005 MHz
Settings | electrical conductivity [S/m]
278.15 K, x1 = 0.3874 | 0.573
308.15 K, x1 = 0.1741 | 1.63
328.15 K, x1 = 0.06566 | 1.63
348.15 K, x1 = 0.1741 | 2.59
348.15 K, x1 = 0.3874 | 2.27
358.15 K, x1 = 0.06566 | 2.1

101 kPa
Settings | viscosity [mPa·s]
278.15 K, x1 = 1 | 163.6
288.15 K, x1 = 0.1741 | 5.49
328.15 K, x1 = 0.1741 | 2.63
338.15 K, x1 = 0.06566 | 1.491
338.15 K, x1 = 0.1741 | 2.274
348.15 K, x1 = 0.1741 | 1.993
358.15 K, x1 = 0.1741 | 1.768
358.15 K, x1 = 1 | 10.34

CCCOCCO + CCCC[n+]1ccn(C)c1.[Br-]
100 kPa, x2 = 0
Settings | viscosity [mPa·s]
298.15 K | 2.38
303.15 K | 2.11
308.15 K | 1.88
313.15 K | 1.69

CCCC[n+]1ccn(C)c1.F[B-](F)(F)F + OCCO
298.15 K, 100 kPa, x1 = 1
Settings | electrical conductivity [S/m] | viscosity [mPa·s]
– | 0.243 | 104.7

CC1COC(=O)O1 (stereo not drawn) + CCCCn1cc[n+](C)c1C.O=S(=O)([N-]S(=O)(=O)C(F)(F)F)C(F)(F)F
101.3 kPa, x2 = 0
Settings | viscosity [mPa·s]
288.15 K | 3.063
293.15 K | 2.746
343.15 K | 1.213

CCCCCCCCn1cc[n+](C)c1.O=S(=O)([N-]S(=O)(=O)C(F)(F)F)C(F)(F)F + O=C1CCCO1
100 kPa, frequency 0.005 MHz
Settings | electrical conductivity [S/m]
293.15 K, x2 = 0.5048 | 0.325
298.15 K, x2 = 0 | 0.136
298.15 K, x2 = 0.6963 | 0.703
303.15 K, x2 = 0.9514 | 0.796
308.15 K, x2 = 0 | 0.207
313.15 K, x2 = 0.2993 | 0.401
318.15 K, x2 = 0 | 0.307
318.15 K, x2 = 0.0997 | 0.342
318.15 K, x2 = 0.8999 | 1.5
323.15 K, x2 = 0.2993 | 0.534
323.15 K, x2 = 0.9514 | 1.03

Reference: the CheMixHub ionic liquid set
